# Reference: patent publication US5763208A, “Oligonucleotides and their analogs capable of passive cell membrane permeation” (Gilead Sciences, Inc., priority 1996, dated 1998)
# Read-outs that look alike come from different tables or passages of the source.
# Key:
# [1] = pH dependence of fluorescence of fluorescein; format: physicochemical
# From the text: A preferred fluor is fluorescein.
# [2] = system: most of the cell types tested
# Experimental: Within 15 min after washing the dye away from the exterior of the cells, the intracellular pool of the dye is pumped out, either by an organic anion pump mechanism or by diffusion.
# The cell staining assay utilized various cell lines and included P388D1 (mouse macrophage), HEPG2 (human liver), CV1 (monkey epithelial), ccd50sk (untransformed human fibroblast), Rat2 (rat fibroblast), MDCK (kidney cells), L6 (rat myoblast), L cells (mouse fibroblast), HeLa (human adenocarcinoma), skov3 (human ovarian adenocarcinoma), and skbr3 (human breast adenocarcinoma) cells. Other cell lines that were used included Jurkat (human T cell), H9 (human T cell), NIH3T3 (mouse fibroblast), HL60 (human T cell), and H4 (rat liver). All cell lines are commercially available from the American Type Culture Collection, Rockville, Md.
# Cells were grown on 25 mm-#1 coverslips in media containing 25 mM HEPES, pH 7.3, (which helps maintain pH on the microscope) without phenol red (which can lead to high background fluorescence when working with living cells). Coverslips were used so that the high numerical aperture oil-immersion lenses on the microscope could be used. The coverslips were mounted onto "viewing chambers": 6-well petri dishes which have 22 mm holes drilled into the bottom. […]
# [3] = cited from earlier work
# [4] = known values of standard compounds used for the standard curve (Veith et al.)
smiles,measurement,setting,value
O=C1OC2(c3ccc(O)cc3Oc3cc(O)ccc32)c2ccccc21 [fluorescein],net charge,[1]; pH 5.0,net neutral charge
same,fluorescence at pH 5.0 relative to pH 7.5,[1]; pH 5.0 vs pH 7.5,greater than an order of magnitude less fluorescent
same,net charge,[1]; pH 7.5,net negative charge
same,time in which the intracellular pool of the dye is pumped out,[2],≤ 15 min
same,cell permeation of dye,[2]; not told,permeant to most of the cell types tested
Nc1cccc(O)c1 [3-aminophenol],Log Poct,[3]; [4],0.17
Nc1ccccc1O [2-aminophenol],Log Poct,[3]; octanol/water,0.62
Nc1ccccc1[N+](=O)[O-] [o-nitroaniline],Log Poct,[3]; [4],1.44
Nc1ccccc1 [aniline],Log Poct,[3]; [4],0.9
